What all share (assay type): cell-based
For experiment [1], the system named is HeLaNRF1/c4 reporter cells. The experiment can be described thus: Gene expression (qPCR) in HeLaNRF1/c4 reporter cells. To be noted: long-term treatment. How it is done: The HeLaNRF1/c4 reporter cells were employed to investigate effects of the modified fatty acids on NRF1-regulated mitochondrial biogenesis. The cells (250,000) were seeded in T75 flasks and incubated for 3 hours to allow attachment. The compounds were dissolved in DMSO and diluted in culture medium to provide the final concentration. DMSO at a concentration equivalent to the highest compound concentration was added to control cultures. Resveratrol and AICAR were used as positive controls. Resveratrol has not previously been tested in this reporter model, but we found it relevant to include it for purposes of experimental and mechanistic comparisons. After 3 days of treatment the media was replaced with fresh media containing the corresponding compound. On day 5, the cells were harvested and the cultures split into three fractions: One fraction was used for detection of mitoGFP expression by flow cytometry, to assess effects on NRF-1 regulated mitochondrial biogenesis. Flow cytometry analysis was performed as previously described. Another fraction was used for extraction of RNA and subsequent gene expression analysis using quantitative PCR (see below). The last fraction was employed to investigate effects on mitochondrial respiratory function by extracellular flux analysis (described above). The experiment was replicated three times.
Total RNA was extracted from harvested cells (RNAeasy kit Qiagen, Hilden, Germany). The RNA content was quantified on Nanodrop 1000 Spectrophotometer (Thermo Scientific). From 1 μg total RNA, cDNA was synthesized using High-Capacity Reverse Transcription Kit (Applied Biosystems, Carlsbad, Calif., US). Gene quantification was done using TaqMan probes for gene expression assays (Applied Biosystems). Probes used were: PGC1α (PPARG coactivator 1α), Hs00173304_m1; HIF1α (hypoxia inducible factor 1α), Hs00153153_m1; PDK1 (pyruvate dehydrogenase kinase 1), Hs01561847_m1; PDK4, (pyruvate dehydrogenase kinase 4), Hs01037712_m1; SIRT4 (sirtuin 4) Hs01015516_g1; ACOX1 (acyl-CoA oxidase 1) Hs01074241_m1; as reference genes, we used; Eukaryotic 18S rRNA Hs99999901_s1; actin beta Hs99999903_m1. Fold change was calculated as geometric mean of ΔΔCt of the two reference genes.

Experiment [2] relates to HeLaNRF1/c4 reporter cells. The experiment can be described thus: Resazurin conversion assay in HeLaNRF1/c4 reporter cells. The note with it: test compounds 30 μM and 60 μM, long treatment. Here is the method:
(§1) Non-small cell lung cancer cells, HCC827 (ATCC) were cultured in RPMI-1640 Glutamax medium (Sigma-Aldrich St. Louis, Mo., USA), under conventional culture conditions. Media was supplemented with 10% Fetal Bovine Serum (FBS), 1% glutamine and 1% streptomycin/penicillin (Sigma-Aldrich). HeLaNRF1/c4 reporter cells were cultured in Dulbecco's Modified Eagle's Medium (DMEM) supplemented with 10% FBS, 2 mM L-Glutamine, 100 u/ml penicillin/streptomycin (Sigma-Aldrich,). Incubation was done at 37° C. in 5% CO2.
(§2) Cell viability/proliferation was determined by the resazurin conversion assay. A total of 4000 cells were seeded in each of the 96-well plates in 100 μl of medium. After 3 hours of incubation, 100 μl of fresh medium with respective concentration of the desired compound or controls were added. Resazurin solution (Sigma-Aldrich) was added (10%, v/v in PBS) after 1 or 3 day treatment, followed by 3 hour incubation at 37° C. and 5% CO2. Resazurin fluorescence (excitation, 540 nm; emission, 590 nm) was measured and measurements were corrected for background signals. […] Relative viability was calculated from percent fluorescence relative to DMSO-treated control wells.
In order to investigate if some of the compounds induce metabolic adaptations involving mitochondrial biogenesis, we employed the HeLaNRF1/c4 reporter cells in which activation of the transcription factor NRF1 triggers expression of GFP. Since adaptations of mitochondrial biogenesis are known to require some days to develop, we used a relatively low dosage (30 μM and 60 μM) of the compounds, to allow longer treatment period compared to the previous short term experiments.
On the technique in general: Resazurin is reduced to fluorescent resorufin, in cell work by metabolically active cells.

Experiment [3] deals with HCC827 cells. The experiment can be described thus: Resazurin conversion cell viability/proliferation assay in HCC827 cells. To be noted: for overall effects on cell viability and mitochondrial function (summary): cultured cells, relatively high dosage. Here is the method:
as §1, §2

For experiment [4], the system named is HCC827 cells. The experiment can be described thus: Mitochondria respiration assay (OCR, extracellular flux) in HCC827 cells. How it is done:
as §1
Mitochondria function was analyzed by measuring oxygen consumption rate (OCR) by extracellular flux analysis in a Seahorse XFe96 instrument (Agilent Seahorse XF Technologies). The measurements were performed in DADA basic media without phenol red, supplemented with L-glutamine (2 mM), pyruvate (2 mM), and sodium chloride, NaCl (32 mM) (Sigma-Aldrich). Respiratory rates were measured following sequential additions of glucose (10 mM), oligomycin, carbonyl cyanide m-chlorophenyl hydrazine (CCCP) and a mixture of rotenone (1 μM) and antimycin A (1 μM). Before carrying out the measurements for each cell model, optimizations were done for; cell number, CCCP, and oligomycin concentrations. For the HCC 827 cell model optimal conditions were; 30,000 cells/well, 0.5 μM CCCP, and 3 μM Oligomycin; and in HeLaNRF1/c4 reporter cell model; 20,000 cells/well, 1 μM CCCP and 3 μM Oligomycin. The OCR measured initially (before any additions) represented the rate ‘basal respiration.’ The addition of ATP synthase inhibitor oligomycin provided oxygen consumption independent of ATP production (‘leak activity’). Maximal respiration (also referred to as ‘respiratory capacity’) was measured upon addition of the uncoupler CCCP. […] After the extracellular flux analysis the analysis plates were washed with Phosphate Buffered Saline (PBS) and frozen at −80° C. The BCA assay (Pierce BCA protein assay kit, Thermo Fisher Scientific, Waltham, Mass. USA) was employed to measure the protein content in the wells. To evaluate the effects of the different treatments, the respiratory rates from compound-treated wells were normalized to protein content, and calculated as percentage of the average respiratory rate of the DMSO-treated control wells. All treatments were performed with 6-8 replicate wells.

The text below walks through data of patent US20220249525A1, “Fatty Acid Compounds for Prevention and Treatment of Neurodegenerative Disorders” (T OMEGA AS, priority 2019, published 2022).

Turning to `CC#CCCCCCCCCCCCSCC(=O)O` [2-triple TTA, 2-(Tetradec-12-yn-1-ylthio)acetic acid], the PDK4 expression result in experiment [1] is given as “moderate effect”. Besides, the resazurin conversion result in experiment [2] was “little or no effect”. The “viability (resazurin conversion)” value in experiment [3] (HCC827 cells, 200 μM) is on record as “moderate antiproliferative effect”. Also, the “overall effects on cell viability and mitochondrial function (summary)” value (from here on “overall effects”) in experiment [3] is given as “harmful effects were significantly reduced”. The “uncoupled respiratory capacity after CCCP” value in experiment [4] was “stronger dose-dependent effect”. Further, the “leak respiration after oligomycin” value in experiment [4] (100 μM TTA, 200 μM 2-triple TTA, 30 μM TDG) is recorded as “significantly increased”.

Turning to `C#CCCCCCCCCCCCNCC(=O)O` [2-triple TDG, N-(tridec-12-yn-yl) glycine], the PDK4 expression entry in experiment [1] was “moderate effect”. The resazurin conversion result in experiment [2] is reported as “no significant effect”. In addition, the “overall effects” value in experiment [3] is on record as “harmful effects were significantly reduced”.

For `Oc1ccc(C=Cc2cc(O)cc(O)c2)cc1` [resveratrol, Resveratrol, reference compound], the resazurin conversion result in experiment [2] is given as “moderate reduction”. Moreover, in experiment [4] (compared to control), the “basal respiratory rate (OCR)” value is recorded as “little or no effect”.

On to `CCCC(SCC)C(=O)O` (stereo not drawn) [2-(ethylthio) pentanoic acid, 2-(ethylthio)pentanoic acid], for which the “overall effects” value in experiment [3] is reported as “only minor effects”.
